Source: patent US20110293545A1, “Dolichos Biflorus Extract For Use In Cosmetic Skin Treatment” (Cognis IP Management GmbH, priority 2009, published 2011)

How the values were obtained:
Format in all cases: cell-based
collagen I = assay: Stimulation of collagen I production (ELISA of released collagen peptides, Bradford cell proteins); settings: dose 20 μg/ml; 72 hours; human dermal fibroblasts
Experimental: The purpose of this assay was the evaluation of the potential of Dolichos biflorus seed extract to increase the level of collagen I. Human dermal fibroblasts (from skin of aesthetic surgery) were cultivated in growth medium (DMEM Invitrogen N° 41965-039 with FCS at 10% (v/v)) for 24 hours at 37° C. […] The amount of cellular proteins was determined on cell homogenate (in a solution of NaOH 0.1 N) by the Bradford's method. The quantity of synthesized type I collagen was determined by measuring the amount of released collagen peptides in cell culture medium by an ELISA method (kit […]° from Osteomedical). They are expressed in % protein referring to the control (=standard medium with cells).

COL5A1 = assay: qRT-PCR of collagen V encoding gene COL5A1 in human dermal fibroblasts; settings: 10 ng/ml, with carrier protein; 24 h incubation; relative to EF1α
Experimental: (§1) This test was performed to evaluate the stimulation efficacy of a Dolichos biflorus extract according to example 3 on the expression of collagen V encoding genes in human fibroblasts. As 2 genes are responsible of the production of collagen V, namely the genes COL5A1 and COL5A2, both gene expressions were analysed.
(§2) Human dermal fibroblasts (obtained from plastic surgery) were inoculated in standard DMEM medium of cell culture with 10% FCS (Invitrogen). When cell confluence was arisen, the substances to be tested were introduced in new DMEM without FCS. Fibroblasts were incubated during 24 h with the test substances, then total RNA was extracted using a commercial extraction kit (Nucleospin™ RNA II, Macherey-Nagel™, France). Quantification and quality control of total RNA were performed by measuring […] at 260 and 280 nm. […]
(§3) The reverse transcription step was performed with a reverse transcription (RT) kit (ThermoScript™ RT-PCR System, Invitrogen, France) using 0.1 μg of total RNA in a 20 μl final volume. The quantitative PCRs were performed on 2 μl of the RT mix with specific primers in a 20 μl final volume, according to the manufacturer's informations (LightCycler®480 SYBR Green I Master, Roche, France). […] Results, expressed as percentage RNA compared to the control, are the mean of three independent assays (table 3). […]

COL5A2 = assay: qRT-PCR of collagen V encoding gene COL5A2 in human dermal fibroblasts; settings: 10 ng/ml, with carrier protein; 24 h incubation; relative to EF1α
Experimental: as §1, §2, §3

Compound | Cell proteins (collagen I) | Released type I collagen (collagen I) | RNA level of COL5A1 (COL5A1) | RNA level of COL5A2 (COL5A2)
O=C1O[C@H]([C@@H](O)CO)C(O)=C1O [Vitamin C] | 77.3 % protein against control | 118.3 % protein against control | – | –
TGF-β1: growth factor, positive reference; strong transcription activator of collagen genes; added with a carrier protein | – | – | 567 %/control | 171 %/control
